Measurements reported in patent US9204653B2, “5-fluoro pyrimidine derivatives” (DOW AGROSCIENCES LLC, priority 2008, dated 2015).
Like-named read-outs stand apart in the source and are kept apart here.

Tested on: Mycosphaerella graminicola; Anamorph: Septoria tritici; Bayer Code SEPTTR
Test: Leaf blotch of wheat, foliar fungicide treatment, one day protectant (1DP) or three day curative (3DC)
Format: in vivo, Septoria tritici on wheat plants (variety Yuma)
Conditions: Zymoseptoria tritici; for pest or weed control at 25 ppm / pest or weed control at 100 ppm: rating of percent disease control; for pest or weed control at 50 ppm / pest or weed control at 200 ppm: % disease control rating, one day protectant
[1] = 24 h, one day protectant (1DP), read-out: SETTTR 1DP 25 ppm
[2] = 24 h, one day protectant (1DP), read-out: SEPTTR 1DP 100 ppm
[3] = 72 h, three day curative (3DC), read-out: SEPTTR 3DC 25 ppm
[4] = 72 h, three day curative (3DC), read-out: SEPTTR 3DC 100 ppm

For CC(C)COC(=O)Oc1ncc(F)c(/N=C/N(C)C)n1 [Compound 788], the pest or weed control at 25 ppm [1] was 76 to 100%, the pest or weed control at 100 ppm [2] was 76 to 100% and the pest or weed control at 25 ppm [3] was 76 to 100%. The pest or weed control at 100 ppm [4] was 76 to 100%.
For CN(C)/C=N/c1nc(OC(=O)OCc2ccccc2Cl)ncc1F [Compound 789], the pest or weed control at 25 ppm [1] was 76 to 100%, the pest or weed control at 100 ppm [2] was 76 to 100% and the pest or weed control at 25 ppm [3] was 76 to 100%. It also gave a pest or weed control at 100 ppm [4] of 76 to 100%.
Compound CCCCOc1cccc(C(C)Oc2ncc(F)c(N)n2)c1 (centres unmarked) [Compound 790] has a pest or weed control at 25 ppm [1] of 76 to 100%, a pest or weed control at 100 ppm [2] of 76 to 100% and a pest or weed control at 25 ppm [3] of 76 to 100%. For the same compound, the pest or weed control at 100 ppm [4] was 76 to 100%.
Work on O=C(Cc1ccccc1)Nc1nc(OCc2ccccc2)ncc1F [Compound 792] yielded a pest or weed control at 25 ppm [1] of 76 to 100%, a pest or weed control at 100 ppm [2] of 76 to 100% and a pest or weed control at 25 ppm [3] of 26 to 50%. The pest or weed control at 100 ppm [4] was 51 to 75%.
Compound CC(C)C(=O)NNc1nc(OCc2ccc(F)cc2)ncc1F [Compound 793] has a pest or weed control at 25 ppm [1] of 0 to 25%, a pest or weed control at 100 ppm [2] of 0 to 25% and a pest or weed control at 25 ppm [3] of 0 to 25%. The pest or weed control at 100 ppm [4] was 0 to 25%.
With COc1cccc(COc2ncc(F)c(N)n2)c1F [Compound 794] the pest or weed control at 25 ppm [1] was 76 to 100%, the pest or weed control at 100 ppm [2] was 76 to 100% and the pest or weed control at 25 ppm [3] was 76 to 100%. For the same compound, the pest or weed control at 100 ppm [4] was 76 to 100%.
Fc1ccc(COc2ncc(F)c(/N=C/N3CCOCC3)n2)cc1 [Compound 795] showed a pest or weed control at 25 ppm [1] of 76 to 100%, a pest or weed control at 100 ppm [2] of 76 to 100% and a pest or weed control at 25 ppm [3] of 76 to 100%. It also gave a pest or weed control at 100 ppm [4] of 76 to 100%.
Work on COc1c(F)cc(F)cc1COc1ncc(F)c(N)n1 [Compound 796] yielded a pest or weed control at 25 ppm [1] of 76 to 100%, a pest or weed control at 100 ppm [2] of 76 to 100% and a pest or weed control at 25 ppm [3] of 76 to 100%. It also gave a pest or weed control at 100 ppm [4] of 76 to 100%.
In the case of COc1ccccc1COc1ncc(F)c(NC(=S)NCc2ccccc2F)n1 [Compound 797], the pest or weed control at 25 ppm [1] is reported as 51 to 75%, the pest or weed control at 100 ppm [2] is reported as 76 to 100% and the pest or weed control at 25 ppm [3] is reported as 26 to 50%. For the same compound, the pest or weed control at 100 ppm [4] was 76 to 100%.
Work on CC(Oc1ncc(F)c(N)n1)c1cccc(I)c1 (centres unmarked) [Compound 798] yielded a pest or weed control at 25 ppm [1] of 76 to 100%, a pest or weed control at 100 ppm [2] of 76 to 100% and a pest or weed control at 25 ppm [3] of 76 to 100%. It also gave a pest or weed control at 100 ppm [4] of 76 to 100%.
In the case of O=C(Nc1ccccc1F)Nc1nc(OCc2cccs2)ncc1F [Compound 799], the pest or weed control at 25 ppm [1] is reported as 0 to 25%, the pest or weed control at 100 ppm [2] is reported as 0 to 25% and the pest or weed control at 25 ppm [3] is reported as 0 to 25%. It also gave a pest or weed control at 100 ppm [4] of 0 to 25%.
CC(C)(C)OCCOc1ncc(F)c(N)n1 [Compound 802] showed a pest or weed control at 25 ppm [1] of 0 to 25%, a pest or weed control at 100 ppm [2] of 0 to 25% and a pest or weed control at 25 ppm [3] of 0 to 25%. The pest or weed control at 100 ppm [4] was 0 to 25%.
Fc1ccccc1CNc1nc(OC2CCCCC2)ncc1F [Compound 803] showed a pest or weed control at 50 ppm (24 h) of 0 to 25% and a pest or weed control at 200 ppm (24 h) of 51 to 75%.
For Fc1ccc(COc2ncc(F)c(NCCc3ccccc3)n2)cc1 [Compound 805], the pest or weed control at 50 ppm (24 h) was 51 to 75% and the pest or weed control at 200 ppm (24 h) was 76 to 100%.
Work on Fc1cnc(OCc2cccc(C(F)(F)F)c2)nc1NCc1cccs1 [Compound 806] yielded a pest or weed control at 200 ppm (24 h) of 76 to 100%.
Fc1cnc(OCc2ccccc2Cl)nc1NC1CC1 [Compound 807] showed a pest or weed control at 200 ppm (24 h) of 76 to 100%.
Fc1cnc(OCc2ccc(Cl)cc2)nc1NCc1cccs1 [Compound 808] gave a pest or weed control at 50 ppm (24 h) of 76 to 100% and a pest or weed control at 200 ppm (24 h) of 76 to 100%.
Fc1ccccc1CNc1nc(OCc2ccccc2F)ncc1F [Compound 809] showed a pest or weed control at 50 ppm (24 h) of 51 to 75% and a pest or weed control at 200 ppm (24 h) of 76 to 100%.
Fc1cnc(OCc2ccccc2Cl)nc1NCc1cccs1 [Compound 810] was tested, and the pest or weed control at 200 ppm (24 h) was 76 to 100%.
Work on Fc1cnc(OCc2ccc(C(F)(F)F)cc2)nc1NCc1ccc(Cl)cc1 [Compound 811] yielded a pest or weed control at 50 ppm (24 h) of 76 to 100% and a pest or weed control at 200 ppm (24 h) of 76 to 100%.
In the case of COc1cccc(COc2ncc(F)c(NC3CC3)n2)c1 [Compound 812], the pest or weed control at 200 ppm (24 h) is reported as 76 to 100%.
For Fc1cnc(OCc2cccc(C(F)(F)F)c2)nc1NCc1ccc(Cl)cc1 [Compound 813], the pest or weed control at 50 ppm (24 h) was 76 to 100% and the pest or weed control at 200 ppm (24 h) was 76 to 100%.
Fc1cnc(OCc2cc(Cl)cc(Cl)c2)nc1NCc1cccs1 [Compound 814] was tested, and the pest or weed control at 200 ppm (24 h) was 76 to 100%.
CC(=O)Nc1nc(OCc2cccc(Oc3ccccc3)c2)ncc1F [Compound 815] showed a pest or weed control at 50 ppm (24 h) of 76 to 100% and a pest or weed control at 200 ppm (24 h) of 76 to 100%.
Fc1cnc(OCc2ccc(Cl)cc2)nc1NCc1ccc(Cl)cc1 [Compound 816] gave a pest or weed control at 50 ppm (24 h) of 76 to 100% and a pest or weed control at 200 ppm (24 h) of 76 to 100%.
In the case of Fc1ccccc1CNc1nc(OCc2ccco2)ncc1F [Compound 817], the pest or weed control at 50 ppm (24 h) is reported as 26 to 50% and the pest or weed control at 200 ppm (24 h) is reported as 76 to 100%.
Work on Cc1cnc(CNc2nc(OCC(F)(F)F)ncc2F)cn1 [Compound 818] yielded a pest or weed control at 50 ppm (24 h) of 0 to 25% and a pest or weed control at 200 ppm (24 h) of 0 to 25%.
Fc1cnc(OCc2ccc(C(F)(F)F)cc2)nc1NC1CC1 [Compound 819] was tested, and the pest or weed control at 200 ppm (24 h) was 76 to 100%.
With Fc1cccc(COc2ncc(F)c(NCc3ccc(Cl)cc3)n2)c1 [Compound 820] the pest or weed control at 50 ppm (24 h) was 26 to 50% and the pest or weed control at 200 ppm (24 h) was 76 to 100%.
With COc1ccccc1COc1ncc(F)c(NC2CC2)n1 [Compound 821] the pest or weed control at 200 ppm (24 h) was 76 to 100%.
With Cc1cnc(CNc2nc(OCc3cccs3)ncc2F)cn1 [Compound 822] the pest or weed control at 50 ppm (24 h) was 26 to 50% and the pest or weed control at 200 ppm (24 h) was 76 to 100%.
With COc1ccc(COc2ncc(F)c(NC3CC3)n2)cc1 [Compound 823] the pest or weed control at 200 ppm (24 h) was 76 to 100%.
In the case of Fc1cccc(COc2ncc(F)c(NCc3ccccc3F)n2)c1 [Compound 824], the pest or weed control at 50 ppm (24 h) is reported as 76 to 100% and the pest or weed control at 200 ppm (24 h) is reported as 76 to 100%.
With Fc1ccc(COc2ncc(F)c(NCc3ccccc3F)n2)cc1F [Compound 825] the pest or weed control at 50 ppm (24 h) was 51 to 75% and the pest or weed control at 200 ppm (24 h) was 76 to 100%.
Compound Fc1cnc(OCc2cccc(C(F)(F)F)c2)nc1NC1CC1 [Compound 826] has a pest or weed control at 200 ppm (24 h) of 76 to 100%.
Fc1cnc(OCc2ccco2)nc1NCCc1ccccc1 [Compound 827] was tested, and the pest or weed control at 50 ppm (24 h) was 0 to 25% and the pest or weed control at 200 ppm (24 h) was 26 to 50%.
Fc1cnc(OCCc2ccccc2)nc1N1CCOCC1 [Compound 828] gave a pest or weed control at 50 ppm (24 h) of 0 to 25% and a pest or weed control at 200 ppm (24 h) of 0 to 25%.
Compound Fc1cnc(OCc2ccc(OC(F)(F)F)cc2)nc1NCc1ccc(Cl)cc1 [Compound 829] has a pest or weed control at 50 ppm (24 h) of 26 to 50% and a pest or weed control at 200 ppm (24 h) of 76 to 100%.
Compound Fc1cnc(OCC(F)(F)F)nc1NCc1cccs1 [Compound 830] has a pest or weed control at 50 ppm (24 h) of 0 to 25% and a pest or weed control at 200 ppm (24 h) of 0 to 25%.
In the case of Fc1cnc(OCc2cccs2)nc1NCc1cccs1 [Compound 831], the pest or weed control at 50 ppm (24 h) is reported as 51 to 75% and the pest or weed control at 200 ppm (24 h) is reported as 76 to 100%.
Work on O=c1nc(NCc2ccccc2F)c(F)c[nH]1 [Compound 832] yielded a pest or weed control at 50 ppm (24 h) of 0 to 25% and a pest or weed control at 200 ppm (24 h) of 0 to 25%.
Fc1ccc(COc2ncc(F)c(NCC(F)(F)F)n2)cc1 [Compound 833] gave a pest or weed control at 50 ppm (24 h) of 26 to 50% and a pest or weed control at 200 ppm (24 h) of 51 to 75%.
Work on Fc1ccc(COc2ncc(F)c(NC3CC3)n2)c(F)c1 [Compound 834] yielded a pest or weed control at 200 ppm (24 h) of 76 to 100%.
Fc1cnc(OCc2c(Cl)cccc2Cl)nc1NCc1cccs1 [Compound 835] was tested, and the pest or weed control at 200 ppm (24 h) was 76 to 100%.
Cc1ccc(COc2ncc(F)c(N3CCOCC3)n2)cc1 [Compound 836] showed a pest or weed control at 50 ppm (24 h) of 51 to 75% and a pest or weed control at 200 ppm (24 h) of 76 to 100%.
Fc1cnc(OC2CCCCC2)nc1NCCc1ccccc1 [Compound 837] gave a pest or weed control at 50 ppm (24 h) of 0 to 25% and a pest or weed control at 200 ppm (24 h) of 0 to 25%.
In the case of Fc1cnc(OCc2ccc(Cl)cc2Cl)nc1NCc1cccs1 [Compound 838], the pest or weed control at 200 ppm (24 h) is reported as 76 to 100%.
For Fc1cnc(OCc2ccc3c(c2)OCO3)nc1NCc1cccs1 [Compound 839], the pest or weed control at 200 ppm (24 h) was 76 to 100%.
